Here are results for 17 compounds from US11919901B2 (Syndax Pharmaceuticals, Inc., priority 2021, dated 2024).

One data set has as its target hERG (Homo sapiens (Human), UniProt Q12809). The data set can be described thus: Patch clamp assay (hERG tail currents, whole-cell). In kind it is cell-based. As to conditions: hERG transfected HEK 293 cells; for hERG % Remaining 30 μM: 30 μM compound; for hERG % Remaining 10 μM: 10 μM compound.
For the next data set, the target named is Menin-MLL (Homo sapiens (Human), UniProt O00255). The data set can be described thus: Determination of binding constants (Ki) to Menin-MLL (HTRF). The following applies: HTRF, 0.25 nM H-FL-Menin, 3.2 nM FITC-MLL-4-43, 24 hr incubation; for Ki: read-out: Menin-MLL Ki HTRF Assay: Ki.
Menin-MLL, sequence (O00255 whole entry): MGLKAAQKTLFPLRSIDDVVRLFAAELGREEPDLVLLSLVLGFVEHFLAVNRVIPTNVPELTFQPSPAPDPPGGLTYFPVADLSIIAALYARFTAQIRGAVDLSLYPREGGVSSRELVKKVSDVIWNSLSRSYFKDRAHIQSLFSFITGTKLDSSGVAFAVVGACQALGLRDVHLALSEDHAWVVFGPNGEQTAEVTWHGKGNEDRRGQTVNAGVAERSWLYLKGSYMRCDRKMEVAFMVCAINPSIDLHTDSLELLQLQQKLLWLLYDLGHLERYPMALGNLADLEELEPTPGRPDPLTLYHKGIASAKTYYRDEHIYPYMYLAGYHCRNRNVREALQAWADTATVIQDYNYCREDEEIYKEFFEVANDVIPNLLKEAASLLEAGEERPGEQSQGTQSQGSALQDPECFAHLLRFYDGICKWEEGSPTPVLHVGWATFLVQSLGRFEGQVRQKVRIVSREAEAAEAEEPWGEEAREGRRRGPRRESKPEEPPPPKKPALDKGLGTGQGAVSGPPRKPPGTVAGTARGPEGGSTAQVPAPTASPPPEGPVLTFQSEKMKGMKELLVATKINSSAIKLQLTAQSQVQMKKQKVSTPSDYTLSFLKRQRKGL

hERG, sequence (Q12809 whole entry): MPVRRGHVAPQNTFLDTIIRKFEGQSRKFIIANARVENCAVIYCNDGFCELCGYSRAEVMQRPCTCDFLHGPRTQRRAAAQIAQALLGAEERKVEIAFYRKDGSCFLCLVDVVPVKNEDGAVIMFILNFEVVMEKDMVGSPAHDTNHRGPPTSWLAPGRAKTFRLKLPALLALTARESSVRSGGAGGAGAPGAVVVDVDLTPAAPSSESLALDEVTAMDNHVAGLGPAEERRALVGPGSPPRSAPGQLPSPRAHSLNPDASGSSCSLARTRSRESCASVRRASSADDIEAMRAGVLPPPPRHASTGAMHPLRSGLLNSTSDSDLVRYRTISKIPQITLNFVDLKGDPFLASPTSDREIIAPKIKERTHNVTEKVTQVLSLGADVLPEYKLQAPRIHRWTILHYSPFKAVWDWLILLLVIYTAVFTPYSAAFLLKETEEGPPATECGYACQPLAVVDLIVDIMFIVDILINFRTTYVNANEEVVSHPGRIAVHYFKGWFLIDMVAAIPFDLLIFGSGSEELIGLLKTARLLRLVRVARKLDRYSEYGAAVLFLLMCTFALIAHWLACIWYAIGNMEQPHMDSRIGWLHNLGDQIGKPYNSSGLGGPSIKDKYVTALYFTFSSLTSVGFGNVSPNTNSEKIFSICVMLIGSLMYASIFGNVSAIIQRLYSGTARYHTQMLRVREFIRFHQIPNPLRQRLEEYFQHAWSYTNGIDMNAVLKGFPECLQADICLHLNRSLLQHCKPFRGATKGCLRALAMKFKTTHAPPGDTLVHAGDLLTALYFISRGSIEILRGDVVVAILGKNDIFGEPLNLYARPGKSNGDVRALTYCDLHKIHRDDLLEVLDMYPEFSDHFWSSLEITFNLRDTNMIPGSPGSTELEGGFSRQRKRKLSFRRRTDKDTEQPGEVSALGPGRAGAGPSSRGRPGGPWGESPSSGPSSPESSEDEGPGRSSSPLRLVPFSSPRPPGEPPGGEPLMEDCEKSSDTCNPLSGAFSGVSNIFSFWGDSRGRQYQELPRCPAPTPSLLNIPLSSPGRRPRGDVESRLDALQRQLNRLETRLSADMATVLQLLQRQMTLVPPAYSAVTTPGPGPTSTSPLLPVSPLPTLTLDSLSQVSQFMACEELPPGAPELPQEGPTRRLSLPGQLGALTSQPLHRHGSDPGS

`CC(C)N(C)C(=O)c1cc(F)ccc1Oc1cncnc1N1CC2(CCN(C[C@@H]3CC[C@@H](NS(=O)(=O)N4CCC4)CO3)CC2)C1` [Compound 138, 2-((4-(7-(((2S,5R)-5-(Azetidine-1-sulfonamido)tetrahydro-2H-pyran-2-yl)methyl)-2,7-diazaspiro[3.5]nonan-2-yl)pyrimidin-5-yl)oxy)-5-fluoro-N-isopropyl-N-methylbenzamide]: the “hERG % Remaining 30 μM” value on hERG is listed as “+++ (“+++” means ≥66%)”. In addition, the Ki on Menin-MLL was below 1 nM.
As to `CCNS(=O)(=O)N[C@@H]1CC[C@@H](CN2CCC3(CC2)CN(c2ncncc2Oc2ccc(F)cc2C(=O)N(CC)C(C)C)C3)OC1` [Compound 141, N-Ethyl-2-((4-(7-(((2S,5R)-5-((N-ethylsulfamoyl)amino)tetrahydro-2H-pyran-2-yl)methyl)-2,7-diazaspiro[3.5]nonan-2-yl)pyrimidin-5-yl)oxy)-5-fluoro-N-isopropylbenzamide], the “hERG % Remaining 30 μM” value on hERG was “+++ (“+++” means ≥66%)”. The Ki at Menin-MLL was below 1 nM.
On to `CCN(C(=O)c1cc(F)ccc1Oc1cncnc1N1CC2(CCN(C[C@@H]3CC[C@@H](NS(=O)(=O)NC4CC4)CO3)CC2)C1)C(C)C` [Compound 142, 2-((4-(7-(((2S,5R)-5-((N-Cyclopropylsulfamoyl)amino)tetrahydro-2H-pyran-2-yl)methyl)-2,7-diazaspiro[3.5]nonan-2-yl)pyrimidin-5-yl)oxy)-N-ethyl-5-fluoro-N-isopropylbenzamide], for which the “hERG % Remaining 30 μM” value at hERG is “++ (“++” means ≥33% and <66%)”. For the same compound, at Menin-MLL, the Ki was below 1 nM.
Regarding `CNS(=O)(=O)N[C@@H]1CC[C@@H](CN2CCC3(CC2)CN(c2ncncc2Oc2ccc(F)cc2C(=O)N(C(C)C)C(C)C)C3)OC1` [Compound 143, 5-Fluoro-N,N-diisopropyl-2-((4-(7-(((2S,5R)-5-((N-methylsulfamoyl)amino)tetrahydro-2H-pyran-2-yl)methyl)-2,7-diazaspiro[3.5]nonan-2-yl)pyrimidin-5-yl)oxy)benzamide], on hERG, the “hERG % Remaining 30 μM” value was “+++ (“+++” means ≥66%)” and the IC50 is at least 50000 nM. Also, the “hERG % Remaining 100 μM” value at hERG (100 μM compound) was “+++ (“+++” means ≥66%)”. Further, the Ki at Menin-MLL was below 1 nM.
As to `CCNS(=O)(=O)N[C@@H]1CC[C@@H](CN2CCC3(CC2)CN(c2ncncc2Oc2ccc(F)cc2C(=O)N(C(C)C)C(C)C)C3)OC1` [Compound 144, 2-((4-(7-(((2S,5R)-5-((N-Ethylsulfamoyl)amino)tetrahydro-2H-pyran-2-yl)methyl)-2,7-diazaspiro[3.5]nonan-2-yl)pyrimidin-5-yl)oxy)-5-fluoro-N,N-diisopropylbenzamide], on hERG, the “hERG % Remaining 30 μM” value is on record as “+++ (“+++” means ≥66%)”. In addition, at Menin-MLL, the Ki was below 1 nM.
Taken in the same sequence, the figures for `CCNS(=O)(=O)N[C@@H]1CC[C@@H](CN2CCC3(CC2)CN(c2ncncc2Oc2ccc(F)cc2C(=O)N(C(C)C)C2CC2)C3)OC1` [Compound 145, N-Cyclopropyl-2-((4-(7-(((2S,5R)-5-((N-ethylsulfamoyl)amino)tetrahydro-2H-pyran-2-yl)methyl)-2,7-diazaspiro[3.5]nonan-2-yl)pyrimidin-5-yl)oxy)-5-fluoro-N-isopropylbenzamide] were “+++ (“+++” means ≥66%)” and below 1 nM.
Turning to `CCNS(=O)(=O)N[C@@H]1CC[C@@H](CN2CCC3(CC2)CN(c2ncncc2Oc2ccc(F)cc2C(=O)N(CC(F)F)C(C)C)C3)OC1` [Compound 147, N-(2,2-Difluoroethyl)-2-((4-(7-(((2S,5R)-5-((N-ethylsulfamoyl)amino)tetrahydro-2H-pyran-2-yl)methyl)-2,7-diazaspiro[3.5]nonan-2-yl)pyrimidin-5-yl)oxy)-5-fluoro-N-isopropylbenzamide], at hERG, the “hERG % Remaining 10 μM” value is reported as “+++ (“+++” means ≥66%)”, the “hERG % Remaining 30 μM” value is “+++ (“+++” means ≥66%)” and the IC50 was at least 50000 nM. Besides, the Ki on Menin-MLL is below 1 nM.
On to `CC(C)N(CC(F)F)C(=O)c1cc(F)ccc1Oc1cncnc1N1CC2(CCN(C[C@@H]3CC[C@@H](NS(=O)(=O)NCC4CC4)CO3)CC2)C1` [Compound 148, 2-((4-(7-(((2S,5R)-5-((N-(Cyclopropylmethyl)sulfamoyl)amino)tetrahydro-2H-pyran-2-yl)methyl)-2,7-diazaspiro[3.5]nonan-2-yl)pyrimidin-5-yl)oxy)-N-(2,2-difluoroethyl)-5-fluoro-N-isopropylbenzamide], for which the “hERG % Remaining 30 μM” value on hERG is “+++ (“+++” means ≥66%)”. Moreover, the Ki on Menin-MLL is below 1 nM.
Taken in the same sequence, the figures for `CC(C)N(CC(F)F)C(=O)c1cc(F)ccc1Oc1cncnc1N1CC2(CCN(C[C@@H]3CC[C@@H](NS(=O)(=O)NC4CC4)CO3)CC2)C1` [Compound 149, 2-((4-(7-(((2S,5R)-5-((N-Cyclopropylsulfamoyl)amino)tetrahydro-2H-pyran-2-yl)methyl)-2,7-diazaspiro[3.5]nonan-2-yl)pyrimidin-5-yl)oxy)-N-(2,2-difluoroethyl)-5-fluoro-N-isopropylbenzamide] were “+++ (“+++” means ≥66%)” and below 1 nM.
Turning to `CCNS(=O)(=O)N[C@@H]1CC[C@@H](CN2CCC3(CC2)CN(c2ncncc2Oc2ccc(F)cc2C(=O)N(CC(F)(F)F)C(C)C)C3)OC1` [Compound 153, 2-((4-(7-(((2S,5R)-5-((N-Ethylsulfamoyl)amino)tetrahydro-2H-pyran-2-yl)methyl)-2,7-diazaspiro[3.5]nonan-2-yl)pyrimidin-5-yl)oxy)-5-fluoro-N-isopropyl-N-(2,2,2-trifluoroethyl)benzamide], on hERG, the “hERG % Remaining 30 μM” value is listed as “+++ (“+++” means ≥66%)” and the IC50 was at least 50000 nM. Moreover, the Ki at Menin-MLL is below 1 nM.
With `CNS(=O)(=O)N[C@@H]1CC[C@@H](CN2CCC3(CC2)CN(c2ncncc2Oc2ccc(F)cc2C(=O)N(C(C)C)C2CC(F)(F)C2)C3)OC1` [Compound 154], at hERG, the “hERG % Remaining 10 μM” value was “+++ (“+++” means ≥66%)”; the “hERG % Remaining 30 μM” value is “++ (“++” means ≥33% and <66%)”. For the same compound, the Ki on Menin-MLL was below 1 nM.
On to `CCNS(=O)(=O)N[C@@H]1CC[C@@H](CN2CCC3(CC2)CN(c2ncncc2Oc2ccc(F)cc2C(=O)N(C(C)C)C2CC(F)(F)C2)C3)OC1` [Compound 155, N-(3,3-Difluorocyclobutyl)-2-((4-(7-(((2S,5R)-5-((N-ethylsulfamoyl)amino)tetrahydro-2H-pyran-2-yl)methyl)-2,7-diazaspiro[3.5]nonan-2-yl)pyrimidin-5-yl)oxy)-5-fluoro-N-isopropylbenzamide], for which, at hERG, the “hERG % Remaining 10 μM” value is “+++ (“+++” means ≥66%)”; the “hERG % Remaining 30 μM” value was “++ (“++” means ≥33% and <66%)”. Further, the Ki on Menin-MLL is below 1 nM.
As for `CC(C)N(C(=O)c1cc(F)ccc1Oc1cncnc1N1CC2(CCN(C[C@@H]3CC[C@@H](NS(=O)(=O)c4cnn(C)c4)CO3)CC2)C1)C1CC(F)(F)C1` [Compound 156, N-(3,3-Difluorocyclobutyl)-5-fluoro-N-isopropyl-2-((4-(7-(((2S,5R)-5-((1-methyl-1H-pyrazole)-4-sulfonamido)tetrahydro-2H-pyran-2-yl)methyl)-2,7-diazaspiro[3.5]nonan-2-yl)pyrimidin-5-yl)oxy)benzamide], the “hERG % Remaining 30 μM” value on hERG is reported as “+++ (“+++” means ≥66%)”. Moreover, the Ki on Menin-MLL was below 1 nM.
The matching figures for `C[C@@H]1COC[C@@H](C)N1C(=O)c1cc(F)ccc1Oc1cncnc1N1CC2(CCN(C[C@@H]3CC[C@@H](NS(=O)(=O)NCC4CC4)CO3)CC2)C1` [Compound 158, (Cyclopropylmethyl)({[(3R,6S)-6-{[2-(5-{2-[(3R,5R)-3,5-dimethylmorpholine-4-carbonyl]-4-fluorophenoxy}pyrimidin-4-yl)-2,7-diazaspiro[3.5]nonan-7-yl]methyl}oxan-3-yl]sulfamoyl})amine]: “+++ (“+++” means ≥66%)” and below 1 nM.
The matching figures for `C[C@@H]1COC[C@H](C)N1C(=O)c1cc(F)ccc1Oc1cncnc1N1CC2(CCN(C[C@@H]3CC[C@@H](NS(=O)(=O)N4CCC4)CO3)CC2)C1` [Compound 161, N-((3R,6S)-6-((2-(5-(2-((3R,5S)-3,5-Dimethylmorpholine-4-carbonyl)-4-fluorophenoxy)pyrimidin-4-yl)-2,7-diazaspiro[3.5]nonan-7-yl)methyl)tetrahydro-2H-pyran-3-yl)azetidine-1-sulfonamide]: “+++ (“+++” means ≥66%)” and below 1 nM.
`CC(C)N(C(=O)c1cc(F)ccc1Oc1cncnc1N1CC2(CCN(C[C@@H]3CC[C@@H](NS(=O)(=O)C4CC4)CO3)CC2)C1)[C@@H]1CCOC1` [Compound 164, 2-((4-(7-(((2S,5R)-5-(Cyclopropanesulfonamido)tetrahydro-2H-pyran-2-yl)methyl)-2,7-diazaspiro[3.5]nonan-2-yl)pyrimidin-5-yl)oxy)-5-fluoro-N-isopropyl-N-((R)-tetrahydrofuran-3-yl)benzamide]: at hERG, the “hERG % Remaining 10 μM” value is “+++ (“+++” means ≥66%)” and the “hERG % Remaining 30 μM” value was “+++ (“+++” means ≥66%)”. Further, at Menin-MLL, the EC50 is below 50 nM and the Ki is below 1 nM.
In the case of `CCN(CC)S(=O)(=O)N[C@@H]1CC[C@@H](CN2CCC3(CC2)CN(c2ncncc2Oc2ccc(F)cc2C(=O)N(C(C)C)[C@@H]2CCOC2)C3)OC1` [Compound 165, 2-((4-(7-(((2S,5R)-5-((N,N-Diethylsulfamoyl)amino)tetrahydro-2H-pyran-2-yl)methyl)-2,7-diazaspiro[3.5]nonan-2-yl)pyrimidin-5-yl)oxy)-5-fluoro-N-isopropyl-N-((R)-tetrahydrofuran-3-yl)benzamide], on hERG, the “hERG % Remaining 10 μM” value is “+++ (“+++” means ≥66%)”; the “hERG % Remaining 30 μM” value is “++ (“++” means ≥33% and <66%)”. In addition, the Ki on Menin-MLL was below 1 nM.
